Drawing on patent US9688721B2, “Tubulysin compounds, methods of making and use” (priority 2013, dated 2017), this text covers EC50 for eight compounds.

In general, EC50 refers to the midpoint of the concentration-response curve.

Like-named read-outs stand apart in the source and are kept apart here.

Assay [1] relates to H226 lung cancer cells. The assay can be described thus: ATP luminescence assay (CELLTITER-GLO), H226 cells. It is filed as cell-based. The procedure:
(§1) As controls, doxorubicin and the tubulysin analog Compound A, which contains an acetate group instead of a carbamate group at the Tuv subunit, were used. Compound A can be prepared according to the teachings of Cheng et al. 2011.
(§2) Tumor cell lines were obtained from the American Type Culture Collection (ATCC), P.O. Box 1549, Manassas, Va. 20108, USA, and cultured according to ATCC instructions. Cells were seeded at 1.0×10^3 cells/well in 96-well plates for 3 h for the ATP assays. 1:3 serial dilutions of the compounds were added to the wells. Plates were allowed to incubate for 24 to 72 h. […] The EC50 values—the concentration at which an agent inhibits or reduces cell proliferation by 50%—were determined using PRISM™ software, version 4.0 (GraphPad Software, La Jolla, Calif., USA).
A general note: In ATP-based viability assays light output follows the ATP content of the culture.

Assay [2] has as its system 786-O renal cancer cells. The assay can be described thus: ATP luminescence assay (CELLTITER-GLO), 786-O cells. It is filed as cell-based. The procedure: as §1, §2
Assay [3] concerns N87 gastric cancer cells. The settings on record: ATP luminescence assay. The procedure:
as §2

On to `CCOC(=O)C(C)C[C@H](Cc1ccccc1)NC(=O)c1csc([C@@H](C[C@H](C(C)C)N(CCc2ccc(N)cc2)C(=O)[C@@H](NC(=O)[C@H]2CCCCN2C)[C@@H](C)CC)OC(=O)NC)n1` (some centres unmarked) [(I-5)], for which the EC50 is 19.5 nM in assay [1] (Homo sapiens, NCI-H226) and 22.9 nM in assay [2] (Homo sapiens, 786-0). In the case of `CC[C@H](C)[C@H](NC(=O)[C@H]1CCCCN1C)C(=O)N(C)[C@H](C[C@@H](OC(C)=O)c1nc(C(=O)N[C@@H](Cc2ccccc2)C[C@H](C)C(=O)O)cs1)C(C)C` [Compound A, reference compound], the EC50 came out at 2.4 nM in assay [1] (Homo sapiens, NCI-H226) and 1.2 nM in assay [2] (Homo sapiens, 786-0). Turning to `CC[C@H](C)[C@H](NC(=O)[C@H]1CCCCN1C)C(=O)N(COC(=O)CC(C)C)[C@H](C[C@@H](OC(C)=O)c1nc(C(=O)N[C@@H](Cc2ccccc2)C[C@H](C)C(=O)O)cs1)C(C)C` [tubulysin D, reference compound], the EC50 stood at 0.05 nM in assay [1] (H226 lung cancer cells, ATP luminescence assay, read-out: EC50) and 0.02 nM in assay [2] (786-O renal cancer cells, ATP luminescence assay, read-out: EC50).

Turning to `CC[C@H](C)[C@H](NC(=O)[C@H]1CCCCN1C)C(=O)N(C)[C@H](C[C@@H](OC(=O)Nc1ccccc1)c1nc(C(=O)N[C@@H](Cc2ccc(N)cc2)C[C@H](C)C(=O)O)cs1)C(C)C` [Compound 75b], in assay [3], the EC50 amounted to 0.39 nM. With `CC[C@H](C)[C@H](NC(=O)[C@H]1CCCCN1C)C(=O)N(CCc1ccc(N)cc1)[C@H](C[C@@H](OC(=O)NC)c1nc(C(=O)N[C@@H](Cc2ccccc2)CC(C)C(=O)O)cs1)C(C)C` (some centres unmarked) [(I-7)], the EC50 stood at 15.4 nM in assay [1] (Homo sapiens, NCI-H226) and 12.5 nM in assay [2] (Homo sapiens, 786-0).

Regarding `CC[C@H](C)[C@H](NC(=O)[C@H]1CCCCN1C)C(=O)N(CCc1ccc(N)cc1)[C@H](C[C@@H](OC(=O)NC)c1nc(C(=O)N[C@@H](Cc2ccccc2)CC(C)C(=O)OC)cs1)C(C)C` (some centres unmarked) [(I-6)], the EC50 came out at 9.9 nM in assay [1] (Homo sapiens, NCI-H226) and 22.8 nM in assay [2] (Homo sapiens, 786-0). In assay [3], `CC[C@H](C)[C@H](NC(=O)[C@H]1CCCCN1C)C(=O)N(C)[C@H](C[C@@H](OC(=O)N(C)C)c1nc(C(=O)N[C@@H](Cc2ccc(N)cc2)C[C@H](C)C(=O)O)cs1)C(C)C` [Compound 75c] showed an EC50 of 5.4 nM. Take `COc1cccc2c1C(=O)c1c(O)c3c(c(O)c1C2=O)C[C@@](O)(C(=O)CO)C[C@@H]3O[C@H]1C[C@H](N)[C@H](O)[C@H](C)O1` [doxorubicin, reference compound]: the EC50 worked out at 115 nM in assay [1] (Homo sapiens, NCI-H226, H226 lung cancer cells, ATP luminescence assay, read-out: EC50) and 68.9 nM in assay [2] (Homo sapiens, 786-0, 786-O renal cancer cells, ATP luminescence assay, read-out: EC50).
